ChEMBL document CHEMBL1150842, “Two new fatty diterpenoids from Salvia miltiorrhiza” (J Nat Prod, 2001)

Assays:
Assay type in all cases: functional, cell-based
Conditions in all cases: Oryctolagus cuniculus
[1] = Antiplatelet activity against washed rabbit platelet assessed as inhibition of arachidonic acid-induced platelet aggregation preincubated for 3 mins before arachidonic acid challenge
[2] = Antiplatelet activity against washed rabbit platelet assessed as inhibition of thrombin-induced platelet aggregation preincubated for 3 mins before thrombin challenge
[3] = Antiplatelet activity against washed rabbit platelet assessed as inhibition of collagen-induced platelet aggregation preincubated for 3 mins before collagen challenge

| IC50 [1] | IC50 [2] | IC50 [3] | Compound |
| --- | --- | --- | --- |
| 27 µM |  |  | CC(=O)Oc1ccccc1C(=O)O [ASPIRIN] |
| 5.1 µM | > 100 µM | 50.4 µM | CCCCCCCC/C=C\CCCCCCCC(=O)OCC(C)C1=C(O)C(=O)c2c(ccc3c2CCCC3(C)C)C1=O (configuration not stated) |
| 25.5 µM | > 100 µM | 60.5 µM | CCCCCCCC/C=C\CCCCCCCC(=O)OCC(C)C1=C(O)C(=O)c2c(ccc3c(C)cccc23)C1=O (configuration not stated) [16-O-OLEOYL DANSHENXINKUN A] |
